In patent publication US10709724B2, “Methods of treating mitochondrial dysfunction” (Ecole Polytechnique Federale de Lausanne (EPFL), priority 2011, dated 2020):

Columns and labels:
C. elegans = assay: Quantitative RT-PCR in worms; format: in vivo
Protocol: (§1) mRNA and mtDNA Analysis. Total RNA was prepared using TRIzol (Invitrogen) according to the manufacturer's instructions. RNA was treated with DNase, and 2 μg of RNA was used for reverse transcription (RT). cDNA was purified on QIAquick PCR cleanup columns (Qiagen, Valencia, Calif., USA). 50× diluted cDNA was used for RT-quantitative PCR (RT-VCR) VCR) reactions (Bai et al., 2007). The RT-qPCR reactions were performed using the Light-Cycler system (Roche Applied Science) and a qPCR Supermix (Qiagen) with the primers for mice summarized in Table 1 and 4, and with the primers for worms summarized on Table 7. mtDNA quantification was performed as described (Lagouge et al., 2006) with the primers indicated in Table 2 and 5.

[1] = test system: C2C12 myotubes, Hepa1.6 and HEK293T cells; assay: Total intracellular NAD+ content after NR in cell lines; format: cell-based, murine and human; details: 24 hrs
Text: Murine Hepa1.6 and HEK293T cells were maintained in 4.5 g/L glucose DMEM, 10% FCS. For the transfection of HEK293T cells JetPei was used (Polyplus transfections, Illkirch, France) according to the description of the company. PARP-2 depletion and overexpression took place as described in (Bai et al. 2007).
C2C12 cells were maintained in 4.5 g/L glucose DMEM, 10% FCS and were differentiated in 4.5 g/L glucose DMEM, 2% horse serum for 2 days, when cells were considered myofibers. PARP-2 was depleted from C2C12 cells using lentiviral shRNA system (MISSION Lentiviral Vectors, Sigma-Aldrich). The vectors contained the interfering and control sequences described in (Bai et al. 2007). C2C12 cells were transduced with 20 MOI virus and were selected with […] puromycin. Cells withstanding puromycin selection were subcultured. […] The efficiency of knock-down at the mRNA level was assessed by RT-qPCR.
NAD^+ NAM Determination. NAD^+ levels in cultured cells were determined using a commercial kit (Enzychrom™, BioAssays Systems, CA). For tissue samples NAD^+ and NAM levels were determined as described in (Sauve et al., 2005). […] Clear supernatant was injected onto HPLC C-18 column with 20 mM ammonium acetate eluent to separate NAD^+ and NAM from other cellular components, NAD^+ and NAM peaks (260 nm absorbance) were collected. […]

C2C12 myotubes = assay: NR uptake in C2C12 myotubes; format: in vitro ADME
HEK293T cells = assay: Mitochondrial NAD+ in HEK293T cells; format: cell-based, human; details: 0.5 mM, 4 hrs
Protocol: NAD^+ NAM Determination. NAD^+ levels in cultured cells were determined using a commercial kit (Enzychrom™, BioAssays Systems, CA). For tissue samples NAD^+ and NAM levels were determined as described in (Sauve et al., 2005). In brief, to a weighed aliquot of frozen pulverized tissue we added as standards, ^18O-NAD^+ (typically 2.00 nmol) and ^18O-NAM (typically 2.00 nmol). 70 L of ice-cold 7% perchloric acid was then added and the sample was vortexed and sonicated three times, then centrifuged. Clear supernatant was removed and neutralized by additions of 3 M NaOH and 1 M phosphate buffer (pH=9), then centrifuged. Clear supernatant was injected onto HPLC C-18 column with 20 mM ammonium acetate eluent to separate NAD^+ and NAM from other cellular components, NAD^+ and NAM peaks (260 nm absorbance) were collected. Collections were lyophilized to dryness and subjected to MALDI-TOF analysis. For NAD^+ measurement, ratio of intensities for m/z=664 and 666 peaks, corresponding to ^16O- and ^18O-NAD^+ isotopomers, was multiplied by 2.00 nmol and then divided by tissue weight to determine NAD+ concentration in the sample. […] Other NAD metabolites were determined as previously described (Yang and Sauve, Synthesis of nictotinamide riboside and derivatives: effective agents for increasing nictinomide adenine dinucleotide concentrations in mammalian cells. J Med Chem 50, 6458-6461 (2006)).

SIRT1 = SIRT1 activity (FOXO1 acetylation, target genes) in NR-treated HEK293T cells; format: cell-based, human
Protocol: as §1
Immunoprecipitation, SDS-PAGE, Western Blotting. Cells were lysed in lysis buffer (50 mM Tris, […], EDTA 1 mM, NP40 1%, nicotinamide 5 mM, Na-butyrate 1 in M, protease inhibitors pH7.4). Proteins were separated by SDS-PAGE and transferred onto nitrocellulose membranes. The origin of the primary and secondary antibodies used can be found as supplemental experimental procedures. Reactions were developed by enhanced chemiluminescence (Amersham, Little Chalfont, UK), PGC-1α, FOXO1 and Ndufa9 acetylation levels were analyzed by immunoprecipitation from cellular or nuclear lysates of tissues with anti-PGC-1α (Millipore), anti-FOXO1 (Cell Signaling, Danvers, Mass., USA) and anti-Ndufa9 (Abcam) antibody followed by Western blot using an acetyl-lysine antibody (Cell Signaling) that was normalized to total PGC-1a/FOXO1/Ndufa9 levels (Lagouge et al., 2006; Rodgers et al., 2005). In HEK293T cells HA-tagged PGC-1α was overexpressed and was immunoprecipitated using an anti-HA. In C2C12 myotubes, FLAG-HA tagged PGC-1α was introduced through adenoviral delivery 2 days before treatments, then IP was performed using anti-FLAG antibody and samples were processed as described. All blots were quantified by densitometry using ImageJ software. Poly(ADP-Ribose) detection was performed as previously described with slight modifications (Bai et al., PARP-1 inhibition increases mitochondrial metabolism through SIRT1 activation. Cell Metab 13, 461-468. (2011)) Briefly, PAR was detected by using a monoclonal anti-PAR antibody (Alexis, Lausanne Switzerland) by Western blotting of total protein lysates, using either […] of total worm protein lysates, […] of liver protein lysate or 200 g of muscle total protein extracts. PGC-1 acetylation was determined using PGC-1 immunoprecipitates from 2 mg of protein extracts, as described in Canto et al. (Canto et al., AMPK regulates energy expenditure by modulating NAD+ metabolism and SIRT1 activity. Nature 458, 1056 (2009)).

NC(=O)c1ccc[n+]([C@@H]2O[C@H](CO)[C@@H](O)[C@H]2O)c1 [NR, nicotinamide riboside]
expression of genes of mitochondrial oxidative metabolism (cts-1, cox-4) (C. elegans; day 3 of adulthood): trend for increased cts-1 expression
daf-16 expression (C. elegans; in vivo): without affecting daf-16 mRNA levels
sod-3 expression (C. elegans; in vivo): significantly higher sod-3 expression
ability to increase intracellular NAD+ compared with NMN and NA ([1]; 0.5 mM): at least, similar to that of these other precursors
intracellular NAD+ levels [1]: dose-dependently increased intracellular NAD^+ levels
Km (C2C12 myotubes): 172 ± 17.6 µM
Vmax of NR uptake (C2C12 myotubes): 204.2±20.5 pmol/mg of protein/min
mitochondrial NAD+ levels in cultured cells (HEK293T cells): mitochondrial NAD^+ levels were enhanced
expression of FOXO1 target genes (Gadd45, Catalase, Sod1, Sod2) (SIRT1): higher expression of target genes
Sod2 expression (SIRT1; 0.5 mM, 24 hrs): higher expression of a FOXO1 target gene, Sod2
Ucp2 mRNA levels (SIRT1; 0.5 mM, 24 hrs): decreased Ucp2 mRNA levels
Ucp2 expression with Sirt1 knock-down (SIRT1; 0.5 mM, 24 hrs, SIRT1 siRNAs): knocking down Sirt1 prevented the action of NR on Ucp2 expression
intracellular NAD+ content with SIRT1 knock-down (SIRT1; 0.5 mM, 24 hrs, SIRT1 siRNAs): did not compromise the ability of NR to increase intracellular NAD^+ content
Sod2 expression with Foxo1 or Sirt1 knockdown (SIRT1; 0.5 mM, 24 hrs, siRNAs): prevented by the knockdown of either Foxo1 or Sirt1
SIRT1 protein levels (SIRT1; 24 hrs): lack of changes in SIRT1 protein levels
acetylation of FOXO1 (SIRT1; 24 hrs, SIRT1-dependent): dose-dependently decreased the acetylation of FOXO1
